Read-outs that look alike come from different tables or passages of the source.

The conditions of data set [1]: in Wasser und anderen pharmazeutisch annehmbaren Lösungsmitteln; cited from earlier work.
Data set [2] is described as follows: Solubility in pharmaceutically acceptable solvents. Format: physicochemical. Conditions: in Wasser, Glycerin/Ethanol-Gemischen oder Ethanol/Wasser-Gemischen.

As for `CCC12CCCN3CCc4c(n(c5ccccc45)C(O)(C(=O)OC)C1)C32` (centres unmarked) [Vincamin-Base, Vincamin], the Löslichkeit entry in data set [1] is given as “praktisch unlöslich”.

As to Vincamin-cyclamat, the Löslichkeit result in data set [2] is “ausreichend löslich”.

(Values after EP0061654A1, “Vincamine cyclamate, process for its preparation and medicaments containing it” (Heinrich Mack Nachf., priority 1981, dated 1982).)
